{"source": "patent US20120058133A1", "about": "“INHIBITION OF TRNA SYNTHETASES AND THERAPEUTIC APPLICATIONS THEREOF” (President and Fellows of Harvard College, priority 2009, published 2012)", "key": {"STAT3 phosphorylation": {"system": "STAT3 phosphorylation", "experiment": "STAT3 phosphorylation in developing Th17 cells", "assay_type": "cell-based, mouse", "procedure": "FIG. 3. […] FIG. 3A is a set of representative histograms displaying the kinetics of STAT3 phosphorylation in developing Th17 cells treated with or without HF. Resting naïve T cells (grey, shaded peak), T cells activated in the presence of TGFβ plus IL-6 (TGFβ/IL-6) treated with 10 nM MAZ1310 (light gray trace), 5 nM HF (medium gray trace), or 10 nM HF (dark gray trace). T cells were fixed at the indicated times and intracellular phospho-STAT3 staining was performed.\nFIG. 3B depicts western blot analysis of CD4^+ CD25^− T cells treated with 10 nM HF or 10 nM MAZ1310 and activated in the presence or absence of TGFβ plus IL-6. Whole cell lysates were generated at the indicated times following activation.\nAll cell surface staining was performed in FACS buffer (PBS/2% FBS/0.1% NaN3) and antibodies were incubated with cells on ice for 20-30 minutes. Cells were washed with FACS buffer and fixed with FACS buffer plus 1% paraformaldehyde prior to data acquisition. For phospho-STAT3 intracellular staining, stimulated T cells cultured with or without TGFβ plus IL-6 for the indicated times were harvested on ice and fixed in PBS plus 2% paraformaldehyde for 10 minutes at 37° C. Fixed cells were washed twice with staining buffer (PBS/1% BSA/0.1% NaN3) and then permeabilized with perm buffer III (BD Pharmingen) on ice for 30 minutes. Cells were then washed twice with staining buffer and PE-conjugated anti-STAT3 (pY705) (BD Pharmingen) was added per the manufacturer's instructions and incubated with cells at room temperature for 45-60 minutes. Cells were then washed and stored in staining buffer prior to data acquisition. Foxp3 intracellular staining was performed using a Foxp3 intracellular staining kit (eBioscience—San Diego, Calif.) in accordance with the manufacturer's instructions. […] All FACS data was acquired on a FACSCalibur flow cytometer (BD Pharmingen) and analyzed using FlowJo software (Treestar, Inc.—Ashland, Oreg.). […]"}, "[1]": {"system": "passive EAE in RAG2-deficient mice", "experiment": "Passive EAE (transfer of PLP-reactive T cells)", "assay_type": "in vivo, mouse", "settings": "2 μg HF daily i.p.", "source_text": "The ability of systemic HF treatment to block IL-17 expression and associated autoimmune inflammation in vivo was examined using two distinct models of experimental autoimmune encephalomyelitis (EAE). […] The second model, a passive model of EAE induction, is initiated by the transfer of myelin proteolipid protein (PLP)-reactive T cells into lymphopenic hosts.\nPassive EAE was induced by intravenous transfer of purified CD3^+ splenic T cells isolated from PLP TCR transgenic B10.S mice into syngeneic RAG2-deficient mice (3×10^6 cells/mouse) (Waldner et al., J. Clin. Invest. 113(7):990-997, 2004).\nMice were injected daily with HF (2 μg/mouse) or vehicle control (DMSO) i.p. Clinical signs of EAE were assessed according to the following score: 0, no signs of disease; 1, flaccid tail; 2, weak gait/hind limb paresis; 3, hind limb paralysis; 4, tetraplegia; 5, moribund. Cytokine production during EAE was determined either in peripheral T cells isolated from spleen or lymph nodes of mice prior to disease onset (day 6-10) or in mononuclear cells isolated from the brain and spinal cords of mice with severe disease (clinical score ≧2) between days 15-20. Briefly, splenocytes were stained for intracellular cytokines following erythrocyte lysis with ammonium chloride buffer. T cells were isolated from brain and spinal cords of mice with active EAE following perfusion with cold PBS. […]"}, "MEFs": {"system": "MEFs", "experiment": "Total protein synthesis and metabolic activity (Alamar blue) of fibroblasts", "assay_type": "cell-based, mouse", "procedure": "FIG. 26D. HF-inhibition of collagen production is rescued by proline and doesn't affect overall protein synthesis. Cells were pre-incubated with HF with or without proline for 4 hours, and ^35S-methionine and HF with or without proline was added. 24 hours later, conditioned medium and total cell lysate was harvested. New production of Type I procollagen was measured in conditioned medium by Western blot, and bands quantitated using Image J quantitation software. The original blot is shown in FIG. 27; total protein synthesis was measured as TCA-precipitable ^35S in a scintillation counter. Error bars reflect standard deviation of triplicate determinations.\nFIG. 29. HF effect on cellular metabolic activity. MEFs were incubated at indicated dose of HF with or without 2 mM proline for 24 hours and tested for metabolic activity using an Alamar blue assay (Invitrogen)."}}, "note": "Entries after “also recorded” stand apart in the source; their conditions may differ.", "data": [{"compound": "O=C(CC1NCCCC1O)Cn1cnc2cc(Br)c(Cl)cc2c1=O", "note": "(racemic) [HF, halofuginone]", "values": [{"measurement": "time post activation at which STAT3 phosphorylation begins to decrease", "setting": "STAT3 phosphorylation", "result": "around 12 hours"}, {"measurement": "STAT3 activation during the first 6 hours of Th17 differentiation", "setting": "STAT3 phosphorylation; 5-10 nM HF", "result": "did not interfere with STAT3 activation"}, {"measurement": "maintenance of STAT3 phosphorylation", "setting": "STAT3 phosphorylation; 5-10 nM HF", "result": "decreased the maintenance of STAT3 phosphorylation"}, {"measurement": "disease in passive EAE model", "setting": "[1]", "result": "kinetics and severity similar to control treated animals; also recorded: had no effect on an independent, passive model of EAE"}, {"measurement": "total metabolic activity of fibroblasts", "setting": "MEFs", "result": "unaffected"}, {"measurement": "35S-methionine incorporation into total protein", "setting": "MEFs; doses inhibiting ECM proteins, 24 hours", "result": "did not significantly change"}]}]}
